Assay results published in BindingDB's records for doi:10.1038/nchembio.662 (University of California San Francisco, 2011).

target: D(3) dopamine receptor (Homo sapiens, UniProt P35462); test: Binding Assay; conditions: pH 7.4; 22 °C
Procedure: (§1) Affinities for D3-dopaminergic, D2-dopaminergic and beta2-adrenergic receptors were determined by radioligand competition binding at the National Institute of Mental Health Psychoactive Drug Screening Program.

D(3) dopamine receptor, sequence (P35462 as listed by the source): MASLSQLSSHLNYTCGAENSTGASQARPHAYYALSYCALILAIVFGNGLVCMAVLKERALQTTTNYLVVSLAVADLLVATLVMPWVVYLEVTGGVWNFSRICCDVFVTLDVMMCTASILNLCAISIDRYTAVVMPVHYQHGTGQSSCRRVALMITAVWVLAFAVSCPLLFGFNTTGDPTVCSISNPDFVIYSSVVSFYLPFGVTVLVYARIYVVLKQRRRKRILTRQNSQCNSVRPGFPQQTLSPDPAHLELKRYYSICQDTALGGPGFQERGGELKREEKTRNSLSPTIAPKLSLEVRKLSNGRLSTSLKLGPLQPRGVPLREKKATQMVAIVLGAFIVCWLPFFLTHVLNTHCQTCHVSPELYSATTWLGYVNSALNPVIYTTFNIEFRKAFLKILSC

First: CNCc1ccc(-c2cc(Cl)cc(Cl)c2)o1 [Azanium analog, 55]
Second: C[C@H](O)CNCc1ccc(-c2cccc(Cl)c2)o1 [ZINC 4842613, 71]
The Ki of the first is 2.4-fold lower: 0.2 µM for the first, 0.488 µM for the second. The first binds more tightly here.

First: O=c1oc2c(CN3CCCC3)c(O)ccc2c2c1CCC2 [ZINC 118327, 8]
Second: CC1CCN(CCC(=O)N2c3ccccc3C[C@@H]2C)CC1 [ZINC 39217391, 11]
The Ki of the first is higher: over 10 µM for the first, 9.28 µM for the second. The second binds more tightly here.

CC(C)(CO)NCc1ccc(-c2ccccc2)o1 [ZINC 529108, 67] and CC(C)(C)NCc1ccc(-c2ccccc2)o1 [ZINC 4942833, 65] are within 1.5-fold of each other in Ki: 9.58 µM for the first, 8.67 µM for the second.

First: Clc1ccc(Cl)c(-c2ccc(CNC3CC3)o2)c1 [ZINC 4868730, 70]
Second: CC(C)(C)NCc1ccc(-c2ccccc2Cl)o1 [ZINC 6743145, 66]
The Ki of the first is 2-fold lower: 2.71 µM for the first, 5.46 µM for the second. The first binds more tightly here.

Going from CC(C)(CO)NCc1ccc(-c2ccc(F)c(Cl)c2)o1 [ZINC 4942963, 64] to Cc1ccc(-c2ccc(CNC(C)(C)CO)o2)cc1Cl [ZINC 4999756, 68], the Ki falls from 6.81 µM to 2.74 µM (2.5-fold). The second binds more tightly here.

Compared with CC[C@@H](CO)NCc1ccc(-c2cccc(Cl)c2C)o1 [ZINC 7538899, 72], CC(C)NCc1ccc(-c2ccccc2)o1 [ZINC 10436232, 69] is 11-fold higher in Ki: 0.817 µM for the first, 8.89 µM for the second.

Compared with CCSc1nnc2n1CCCN2C(=O)CN1CCOCC1 [ZINC 17173082, 12], C[C@H](C1CC1)N(CCC(=O)N1CCc2ccccc21)C1CC1 [ZINC 42123507, 27] is higher in Ki: 9.83 µM for the first, over 10 µM for the second.

O[C@@H](CN1CCC(Oc2cccc(F)c2)CC1)c1cccs1 [ZINC 19294224, 9] and CN(CCOc1cccc(F)c1)CC(O)c1c(F)cccc1F (configuration not stated) [ZINC 51423503, 49] are within 1.5-fold of each other in Ki: 9.46 µM for the first, 8.74 µM for the second.

Compared with CN(Cc1nc2ccccc2s1)C[C@H](O)Cc1ccccc1 [ZINC 27406499, 25], CN(CCCOc1ccccc1)CC(=O)N1CCc2ccccc21 [ZINC 48057418, 45] is lower in Ki: over 10 µM for the first, 7.21 µM for the second.

N#C/C(=C\c1ccco1)C(=O)N1CCN(CCc2ccccc2)CC1 [ZINC 29218552, 47] and Cc1cccc2nc(C(=O)NCC(c3ccco3)N(C)C)cn12 (configuration not stated) [ZINC 41903371, 52] are the same in Ki: 10 µM for the first, 10 µM for the second.

c1ccc(Cn2cncn2)c(CNCc2ccc(-n3ccnc3)cc2)c1 [ZINC 30900826, 10] and c1ccc(-c2n[nH]cc2CNCc2ccc(Cn3ccnc3)cc2)cc1 [ZINC 42228310, 26] are within 1.5-fold of each other in Ki: 10 µM for the first, 9.31 µM for the second.

Cc1cccc2nc(C(=O)NCC(C)N(C)C)cn12 (configuration not stated) [ZINC 46272073, 50] and CN(C)[C@H](CNC(=O)c1cc([N+](=O)[O-])cc([N+](=O)[O-])c1)c1ccco1 [ZINC 49944321, 48] are within 1.5-fold of each other in Ki: 10 µM for the first, 7.77 µM for the second.

target: D(2) dopamine receptor (Homo sapiens, UniProt P14416); test: Binding Assay; conditions: pH 7.4; 22 °C
Procedure: as §1

D(2) dopamine receptor, sequence (P14416 whole entry): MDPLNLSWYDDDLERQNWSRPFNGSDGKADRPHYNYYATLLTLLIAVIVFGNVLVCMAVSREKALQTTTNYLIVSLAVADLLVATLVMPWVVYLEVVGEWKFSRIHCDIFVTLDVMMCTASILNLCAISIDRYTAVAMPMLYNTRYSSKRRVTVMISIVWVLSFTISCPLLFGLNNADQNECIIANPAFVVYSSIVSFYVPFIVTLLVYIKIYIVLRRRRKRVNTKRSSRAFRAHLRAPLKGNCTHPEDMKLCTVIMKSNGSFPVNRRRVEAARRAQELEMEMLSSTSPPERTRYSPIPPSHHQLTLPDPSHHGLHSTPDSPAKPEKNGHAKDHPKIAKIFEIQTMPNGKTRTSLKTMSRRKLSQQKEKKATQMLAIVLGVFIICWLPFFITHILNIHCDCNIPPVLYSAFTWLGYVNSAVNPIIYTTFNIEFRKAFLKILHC

Compared with Clc1ccc(Cl)c(-c2ccc(CNC3CC3)o2)c1 [ZINC 4868730, 70], CC(C)(C)NCc1ccc(-c2ccccc2)o1 [ZINC 4942833, 65] is 2.3-fold lower in Ki: 6.61 µM for the first, 2.9 µM for the second.

For CCSc1nnc2n1CCCN2C(=O)CN1CCOCC1 [ZINC 17173082, 12], the Ki was 6.35 µM.
